Test results published in patent US7351737B2, “4-[(8-substituted)-6-chromanoyl]-and 4-[8-substituted)-chroman-6-YL-ethynyl]-benzoic and phenylacetic acids, their esters and salts having cytochrome P450RAI inhibitory activity” (Allergan, Inc., priority 2002, dated 2008).

Tested on: skin of fuzzy rats
Test: Topical skin irritation test
Format: in vivo, female fuzzy rats (Hsd:FUZZY-fz)
Conditions: 0.1% retinol alone, topical in acetone, daily Day 1-14; group average of erythema/eschar grade 0-4 (Table 2)
Source text: The topical retinoid all-trans-retinoic acid (ATRA) and oral retinoids such as 13-cis RA and etretinate are known to induce substantial skin irritation in humans. This irritation is a direct result of activation of the RAR nuclear receptors. Analysis of retinoid topical irritation is also a highly reproducable method of determining in vivo retinoid potency. The female fuzzy rats provide a convenient animal model of topical irritation, since retinoid-induced skin flaking and abrasion can be readily scored by eye, while their larger size than those of mice also allows multiple sampling of serum for clinical analyses. Topical application of P450RAI inhibitors should cause an increase in the endogenous levels of ATRA that would result in ATRA-induced irritation in skin of hairless mice. In these tests female fuzzy rats ((Hsd:FUZZY-fz), 6-7 weeks old, were obtained from Harlan Sprague-Dawley (Indianapolis, Ind.). The animals were about 8-9 weeks old at the start of the experiments. Food (Purina Rodent Chow 5001) and water purified by reverse osmosis were provided ad libitum. The rats were housed individually throughout the dosing period. Test chemicals were dissolved in acetone (vehicle) for application to the backs of the rats. Two days prior to actual administration of the test compounds, rats were handled daily and dosed with vehicle at a volume of 0.5 ml/kg. Starting on Day 1 thought Day 14 (dosing period), animals were dosed with the vehicle or compound(s) according to their group assignment. The rats in the tests were observed daily and the dorsal skin was graded for the degree of erythema/eschar and overall appearance. The scoring was in accordance with Table 2, below. [table] Daily group average was calculated by dividing the sum of the individual grade by the number of animals in each treatment group. The attached data in Table 3 indicates the retinoid-mimetic effects of some P450RAI inhibitors on the skin of fuzzy rats in the above described tests and in accordance with the above-indicated scoring.

Compound: CC1=C(/C=C/C(C)=C/C=C/C(C)=C/CO)C(C)(C)CCC1 [retinol, reference compound]
- Irritation Score on day 14: 1
